This note sets out measurements from PMC5537602, “TRPA1 channel mediates organophosphate-induced delayed neuropathy” (Cell Discovery, 2017).

Entries after “also recorded” stand apart in the source; their conditions may differ.

Series [1] concerns mice. As to the kind of experiment: Behavioral testing of mice (paw-licking time after intraplantar injection). It counts as in vivo, mouse. As to the method:
The chosen mice were allowed to acclimate to the experimental environment for at least 2 h before testing. Intraplantar injection of 5% AITC and 30% malathion (10 μl) was achieved using separate injectors. Spontaneous pain evoked by the compounds was assessed by measuring the time (s) the mice spent on licking. For the HC030031 groups, 200 mg kg^−1 HC030031 was intragastrically administered, and then the test was conducted after 1 h. The testing phase was divided into two parts: 0–10 min and 11–60 min.

The next series concerns the target T1, hTRPA1 (Homo sapiens, UniProt O75762).
T1 construct: expressed in transfected cells; host or cells: HEK293, transient, EGFP plasmid co-transfected
As to the kind of experiment: cell-based. Format: cell-based. As to the method:
(§1) Human embryonic kidney 293 (HEK293) cells were cultured in DMEM containing 10% (vol/vol) heat-inactivated fetal bovine serum, 100 units ml^−1 penicillin–streptomycin and 2 mM L-glutamine at 37 °C in a humidity-controlled sterile incubator with 5% CO2. All cell culture reagents were purchased from Life Technologies. HEK293 cells were transfected transiently with the corresponding plasmids using lipofectamine 2000 (Life Technologies). Transfection efficiency was monitored by co-transfecting EGFP plasmid which codes for the enhanced green fluorescent protein. Electrophysiological recordings were performed between 24 and 36 h after transfection.
(§2) Whole-cell patch-clamp recordings in DRG neurons (small diameter, […]) and HEK293 cells were operated at room temperature (23–25 °C) using EPC-10 amplifier and Patch Master Software (HEKA). […] Currents were sampled at 10 kHz and low-pass filtered at 2.9 kHz. The internal solution was as follows (in mM): 140 CsCl, 10 HEPES, 5 EGTA, 0.1 CaCl2 and 1 MgCl2, with pH adjusted to 7.2 by CsOH and osmolarity 295–300 mOsm. The calcium-free external solution contained (in mM) 140 NaCl, 5 KCl, 0.5 EGTA, 1 MgCl2, 10 Glucose and 10 HEPES, with pH adjusted to 7.4 by NaOH and osmolarity 300–310 mOsm. The 0.5 mM EGTA was replaced by 2 mM CaCl2 for the recordings in DRG neurons. TRPA1 currents development was monitored with repetitive injections of 300 ms duration voltage ramps from −100 to +100 mV every 2 s and the holding potential was set to 0 mV for 50 ms, existing in both sides of the voltage ramp. To record inward currents in DRG neurons, we conducted voltage clamp at holding membrane potential of −70 mV. Solutions were switched using a gravity-fed continuous focal perfusion system.

The subject of series [2] is mice. As to the kind of experiment: Transmission electron microscopy of local nerve fibers in mice. Format: in vivo, mouse. How it is done:
For mice, subcutaneous tissue from the site of exposure was removed and fixed by immediate immersion in ice-cold 2.5% glutaraldehyde. Subsequently, the samples were post-fixed in 1% OsO4 for 1 h, dehydrated with an ethanol series and embedded in epon resin. Sixty-nanometer ultra-thin sections were double stained with lead citrate and uranyl acetate and examined using an electron microscopy.

The subject of series [3] is hens. As to the kind of experiment: Transmission electron microscopy of hen spinal cord and sciatic nerve. It counts as in vivo. How it is done:
For hens, the animals were anesthetized with sodium pentobarbital (100 mg kg^−1) and killed 21 days after exposure to TOCP and malathion. They were then perfused with normal saline followed immediately by 4% paraformaldehyde. The lumbar spinal cord at approximately the L2-L3 level and the sciatic nerve of the left leg were removed and fixed by immersion in ice-cold 2.5% glutaraldehyde. Subsequently, the samples were post-fixed in 1% OsO4 for 1 h, dehydrated with the ethanol series, and embedded in epon resin. Sixty-nanometer ultra-thin sections were double stained with lead citrate and uranyl acetate and examined with an electron microscopy.

Series [4] concerns hens. Format: in vivo, hen. Conditions: hens. How it is done: The chosen adult Hyline Brown hens were raised individually in stainless steel wire cages. After 7 days of acclimatization, the chosen hens were randomly divided into groups (n=6–10 for each group). The hens in the delayed neuropathy groups were administered a single dose of 750 mg kg^−1 TOCP and repeated doses of 75 mg kg^−1 malathion by gavage. TOCP and malathion were dissolved in corn oil and administered at 0.65 ml kg^−1. In the HC030031 treatment groups, 100 mg kg^−1 HC030031 was administered by gavage daily beginning at day 0 or day 11. All hens were examined daily for signs of delayed neurotoxicity. A five-point graded scale was used to describe the clinical symptoms of delayed neuropathy, with 0 indicating normal ambulation; (1) suspected ataxia (lack of strength in the legs and tottering); (2) mild ataxia (slow, clumsy and unsteady gait); (3) gross ataxia (waddling gait and staggering and falling despite being active); (4) mild paralysis (typical paralytic posture and lame appearance); and (5) complete paralysis (unable to maintain posture, stand up or move at all), as described previously.

For a further series, the target named is T2, rTRPA1 (Rattus norvegicus, UniProt Q6RI86).
T2 construct: expressed in transfected cells; host or cells: HEK293, transient
T2 sequence (Q6RI86 whole entry): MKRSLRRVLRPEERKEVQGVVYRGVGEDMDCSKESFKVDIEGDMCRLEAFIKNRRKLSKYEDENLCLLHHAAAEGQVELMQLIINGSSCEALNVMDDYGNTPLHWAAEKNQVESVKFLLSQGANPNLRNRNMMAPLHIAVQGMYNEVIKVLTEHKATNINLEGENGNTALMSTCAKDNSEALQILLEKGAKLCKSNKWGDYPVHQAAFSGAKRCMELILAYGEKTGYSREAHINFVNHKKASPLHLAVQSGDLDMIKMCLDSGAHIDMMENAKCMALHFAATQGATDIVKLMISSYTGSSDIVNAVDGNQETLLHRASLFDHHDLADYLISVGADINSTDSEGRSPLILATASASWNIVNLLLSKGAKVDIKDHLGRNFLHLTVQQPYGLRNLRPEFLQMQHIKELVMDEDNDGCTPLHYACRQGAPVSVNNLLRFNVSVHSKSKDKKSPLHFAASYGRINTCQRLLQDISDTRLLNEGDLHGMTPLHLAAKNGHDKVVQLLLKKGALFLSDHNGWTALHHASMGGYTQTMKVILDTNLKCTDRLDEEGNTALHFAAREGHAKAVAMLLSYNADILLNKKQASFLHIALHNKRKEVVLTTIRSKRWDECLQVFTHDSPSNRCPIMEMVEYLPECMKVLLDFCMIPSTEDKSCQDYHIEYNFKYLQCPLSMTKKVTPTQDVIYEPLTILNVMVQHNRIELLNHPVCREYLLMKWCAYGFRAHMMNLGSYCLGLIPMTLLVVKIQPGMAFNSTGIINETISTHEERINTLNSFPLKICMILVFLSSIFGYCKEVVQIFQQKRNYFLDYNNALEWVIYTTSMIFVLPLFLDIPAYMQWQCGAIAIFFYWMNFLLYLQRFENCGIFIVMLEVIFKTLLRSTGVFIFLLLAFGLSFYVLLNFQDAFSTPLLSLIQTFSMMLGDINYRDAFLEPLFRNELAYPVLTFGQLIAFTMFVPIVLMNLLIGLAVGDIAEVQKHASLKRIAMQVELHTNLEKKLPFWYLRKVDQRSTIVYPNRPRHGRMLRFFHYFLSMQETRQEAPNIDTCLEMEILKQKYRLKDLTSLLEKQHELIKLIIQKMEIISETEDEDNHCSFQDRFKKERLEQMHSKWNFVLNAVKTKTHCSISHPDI
Nature of the series: Whole-cell patch-clamp, HEK293 cells expressing rTRPA1. Format: cell-based. How it is done: as §1, §2

Where [5] appears, read: HC030031 200 mg kg−1 per oral, 1 h before test.
The mark [6] stands for this setting: 30 μM, calcium-free external solution.

T1 sequence (O75762 whole entry): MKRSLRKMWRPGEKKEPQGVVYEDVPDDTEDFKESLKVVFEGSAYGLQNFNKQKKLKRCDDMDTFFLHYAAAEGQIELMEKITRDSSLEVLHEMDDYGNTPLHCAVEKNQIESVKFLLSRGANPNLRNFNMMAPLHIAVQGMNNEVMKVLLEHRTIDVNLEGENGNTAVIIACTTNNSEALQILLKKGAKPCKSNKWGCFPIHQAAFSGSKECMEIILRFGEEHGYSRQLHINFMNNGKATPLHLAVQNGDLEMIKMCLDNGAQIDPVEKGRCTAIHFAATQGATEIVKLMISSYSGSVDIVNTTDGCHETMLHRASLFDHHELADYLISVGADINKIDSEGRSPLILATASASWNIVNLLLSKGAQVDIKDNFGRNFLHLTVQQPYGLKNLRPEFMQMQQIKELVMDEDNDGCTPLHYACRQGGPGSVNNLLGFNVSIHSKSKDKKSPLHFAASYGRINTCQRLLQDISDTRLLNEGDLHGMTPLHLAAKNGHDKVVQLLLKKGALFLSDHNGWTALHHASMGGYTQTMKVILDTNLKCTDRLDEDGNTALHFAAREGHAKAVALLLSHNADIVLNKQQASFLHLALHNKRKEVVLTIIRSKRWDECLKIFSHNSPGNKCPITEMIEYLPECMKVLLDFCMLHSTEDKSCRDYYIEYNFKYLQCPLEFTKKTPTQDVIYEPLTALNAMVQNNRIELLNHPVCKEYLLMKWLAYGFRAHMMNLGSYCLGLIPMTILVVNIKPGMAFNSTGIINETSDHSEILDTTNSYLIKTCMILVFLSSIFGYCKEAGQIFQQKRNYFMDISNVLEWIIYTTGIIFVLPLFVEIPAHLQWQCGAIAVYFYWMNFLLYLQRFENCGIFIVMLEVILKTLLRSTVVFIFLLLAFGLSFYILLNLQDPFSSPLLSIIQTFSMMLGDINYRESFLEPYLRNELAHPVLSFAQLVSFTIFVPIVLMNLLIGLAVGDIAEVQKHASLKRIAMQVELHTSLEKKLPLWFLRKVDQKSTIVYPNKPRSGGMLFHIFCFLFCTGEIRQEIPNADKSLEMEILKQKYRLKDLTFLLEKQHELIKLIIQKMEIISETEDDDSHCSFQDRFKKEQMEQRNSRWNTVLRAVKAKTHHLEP

As for `CC(C)c1ccc(NC(=O)Cn2cnc3c2c(=O)n(C)c(=O)n3C)cc1` [HC030031], in the series with mice [1] (setting [5]), the “effect on AITC-evoked nocifensive behavior” value is reported as “suppressed” and the “effect on malathion-evoked nociception-like behavior” value is “blocked”. Further, the “block of agonist-elicited hTRPA1 currents” value on hTRPA1 is “blocked; also recorded: inhibited”. In the series with mice [2] (HC030031 pretreatment), the “effect on malathion-induced myelin sheath damage (TEM)” value is reported as “significantly protected the myelin sheath”. The “effect on TOCP- or malathion-induced nerve injuries (TEM)” value with hens [3] (HC030031 100 mg kg−1) was “significantly reduced”. In the series with hens [4] (HC030031 100 mg kg−1 daily by gavage from day 0 or day 11), the “effect on clinical signs of delayed neuropathy induced by TOCP or malathion” value is “significantly alleviated”. For the same molecule, on rTRPA1 (10 μM HC030031, malathion or TOCP as agonist), the “block of agonist-elicited rTRPA1 currents” value was “blocked”.
Take `CCOC(=O)CC(SP(=S)(OC)OC)C(=O)OCC` (stereo not drawn) [malathion, S-[1,2-bis (ethoxycarbonyl)ethyl] O, O-dimethyl phosphorodithioate]: the “nociception-like behavior in Trpa1−/− mice” value in the series on mice [1] (Trpa1−/− mice, 30% malathion intraplantar) is listed as “not observed”. Also, in the series on mice [1] (WT mice, AITC 10 μl 5%, malathion 10 μl 30%, intraplantar), the “nocifensive behavior (paw-licking) after plantar injection” value is reported as “nociception-like behavior”. Moreover, the “activation of hTRPA1 whole-cell currents” value on hTRPA1 (setting [6]) is listed as “large activation current”. For the same molecule, at hTRPA1 (whole-cell patch-clamp), the EC50 was determined as 14.2 ± 1.84 µM. In addition, the “nerve fiber damage around the injection site (TEM)” value in the series with mice [2] (WT mice, plantar injection, 5% AITC or 30% malathion) is reported as “damage of the myelin sheath”. In addition, in the series on hens [3] (21 days after exposure), the “damage of spinal cord and sciatic nerve (TEM)” value was “severely damaged the spinal cord and sciatic nerve”. Also, the “clinical symptoms of delayed neuropathy” value in the series with hens [4] (malathion 75 mg kg−1 q.d. for 11 days, day 5) was “slow and clumsy gait”. Further, on rTRPA1 (setting [6]), the “activation of rTRPA1 whole-cell currents” value is recorded as “large activation current”.
